In US9777037B2, “Neurosteroid compounds” (BIONATURE E. A. LTD., priority 2007, dated 2017):

Assays:
[1] = tested on: Neural-crest derived PC12 cells; assay: APOPercentage apoptosis assay, serum-deprivation induced apoptosis of PC12 cells; type: cell-based, rat; settings: for IC50: Rattus norvegicus, PC-12, absence of serum 12 hours, ApoPercentage assay (FIG. 2), read-out: IC50 of anti-apoptotic, cytoprotective effect
Experimental: Neural-crest derived PC12 cells were maintained in culture at 5% CO2, at 37° C., in RPMI 1640 medium containing 2 mM L-glutamine, 15 mM HEPES, 100 units/ml penicillin, 0.1 mg/ml streptomycin, 10% horse serum, and 5% foetal calf serum. Serum free medium was supplemented with 1% bovine serum albumin (BSA). Different steroids, used at various concentrations, were initially diluted in ethanol. The final concentration of ethanol in each well, including controls was 0.01%. Conjugate DHEA-BSA was initially diluted in Phosphate Buffer Saline (PBS).
Cells were cultured in the absence of serum for 12 hours, supplemented with DHEA and various synthetic spiro neurosteroids at 10 nM. Cell apoptosis was quantitated with two different methods: The APOPercentage Apoptosis Assay (Biocolor Ltd., Belfast, N. Ireland) was used to quantify apoptosis, according to the manufacturer's instructions. Apoptosis was quantified following cell lysis by measuring the dye incorporated in apoptotic cells at 550 nm (reference filter 620 nm) using a colour filter microplate colorimeter (Dynatech MicroElisa reader, Chantilly, Va.) (see FIGS. 1 and 2). FACS Analysis: FACS analysis of apoptotic cells was performed according to our protocol (Proc Natl Acad Sci USA 101,8209 (2004)). Flow cytometry was performed with FACScan (Becton Dickinson, Heidelberg, Germany) and the results were analysed with the FACScan and Cell Quest softwares (see FIG. 3).

[2] = tested on: Bcl-2 and Bcl-xL proteins; assay: Western blot of anti-apoptotic Bcl-2 and Bcl-xL proteins in serum-deprived PC12 cells; type: cell-based, rat; settings: 10 nM neurosteroid (FIG. 4)
Experimental: Neural-crest derived PC12 cells were cultured for 8 hours in the absence of serum, but supplemented with 10 nM of various neurosteroids. At the end of incubation cell lysates were subjected to electrophoresis through a 12% SDS-polyacrylamide gel. Then, proteins were transferred to nitrocellulose membranes, which were processed according to standard Western blotting procedures. To detect protein levels, membranes were incubated with the appropriate antibodies: Bcl-2, (Santa Cruz Biotechnology Inc., Santa Cruz, Calif., dilution 1:100) Bcl-xL (Cell Signalling Technology Inc., Beverly, Mass., dilution 1:100). A PC-based Image Analysis program was used to quantify the intensity of each band (Image Analysis, Inc., Ontario, Canada). To normalize for protein content, the blots were stripped and stained with anti-actin antibodies (Chemicon, Temecula, Calif., dilution 1:400); the concentration of each target protein was normalized versus actin.

[3] = tested on: DHEA specific membrane receptors; assay: [3H]DHEA competition binding on isolated PC12 cell membranes; set-up: species or system rat; settings: for Kd: isolated PC12 cell membranes, 5 nM [3H]DHEA (FIG. 5)
Experimental: PC12 rat sympathoadrenal cells were cultured in 225 cm^2 flasks and, after washing twice with PBS, they were detached from the flasks by vigorous shaking. After a centrifugation at 1500 g, they were homogenized by sonication, in a 50 mM Tris-HCl buffer pH 7.4 at 4° C., containing freshly added protease inhibitors (1 mM PMSF and 1 μg/ml aprotinin). Unbroken cells were removed by centrifugation at 1500 g (10 min at 4° C.), and membranes were collected by centrifuging at 102,000 g for 1 hr at 4° C. Membranes were washed once with Tris-HCl, briefly acidified at 4° C. (for 3 min) with 50 mM glycine (pH 5.0), and re-suspended in the same buffer. Protein content was assayed by the method of Bradford, using reagents from Bio-Rad (Hercules, Calif.). Membranes (at a final concentration of 2 mg/ml) were incubated with 5 nM [^3H]DHEA, in the absence (to determine the total binding) or presence of unlabeled neurosteroids and their synthetic spiro analogs, at concentrations varying from 10^−12 to 10^−6 M and at a final volume of 100 μl, in Tris-HCl buffer (50 mM, pH 7.4). Following a […] incubation in a water bath, at 37° C., membranes were collected on GF/B filters, prewet in 0.5% PEI solution at 4° C. The filters were washed three times with ice-cold Tris-HCl, dried, supplemented with scintillation medium (Sigma Hellas, Athens, Greece) and counted in a β-scintillation counter (Perkin Elmer, Foster City, Calif.) with 60% efficiency for Tritium.

[4] = tested on: Dopaminergic neural-crest derived PC12 cells; assay: Dopamine secretion from dopaminergic PC12 cells (radioimmunoassay); type: cell-based, rat; settings: 10^-7 M; for dopamine levels in culture media, long-term: 3 to 48 hours (FIG. 6B); for stimulation of dopamine secretion, short-term: 5 to 30 min, effect within 10 min (FIG. 6A)
Experimental: Dopaminergic neural-crest derived PC12 cells were grown in 6-well plates, coated with poly-L-lysine, at a concentration of 10^6 cells/well. Cells were incubated with neurosteroids or the vehicle for several time periods; for the short-term experiments the incubation time ranged from 5 to 30 minutes and for the long-term from 3 to 48 hours. 1 mL of supernatants were transferred to tubes containing 200 μl 0.1 M HCl for measurement of dopamine, which was measured by radioimmunoassay (TriCat™ RIA, RE29395, IBL Immuno Biological Lab., Hamburg, Germany) using ^125I as a tracer. The analytical sensitivity of the method was 30 pg/ml, its intra-assay CV was 9.5%, and its inter-assay CV was 16.7%. The cross reactivity between dopamine and norepinephrine was <0.013%

[5] = tested on: tyrosine hydroxylase mRNA; assay: Tyrosine hydroxylase (TH) RT-PCR in dopaminergic PC12 cells; type: cell-based, rat; settings: dopaminergic PC12 cells (FIG. 6C)
Experimental: Tyrosine Hydroxylase (TH) RT-PCR: Total RNA was extracted from dopaminergic PC12 cells using the Trizol Reagent (Invitrogen Life technologies, CA). One microgram of total RNA was reverse transcribed by the Thermo-Script RT-PCR System (Invitrogen) using random hexamers in a total volume of 20 μl. Two microliters of the RT product was used as a template, amplified by PCR using 2 mM MgCl2, one strength PCR buffer, 0.2 mM of sense and antisense primers, 0.2 mM dNTPs and 2.5 U AmpliTaq Gold DNA polymerase (Perkin Elmer ABD, Foster City, Calif.) in a final reaction volume of 50 μl. PCR was performed in a Perkin Elmer DNA Thermal Cycler. Primers for TH were 5′-[…]-3′ (sense), and 5-[…]-3 (antisense) and for G3PDH were, 5′-[…]-3′ (sense), and 5′-[…]-3′ (antisense). Oligonucleotides were synthesized by MWG-Biotech AG (Munich, Germany). After reverse transcription, the cDNA product was amplified by PCR, at 33 cycles. The cycle number (33) was chosen such that amplification of the products was in the linear range with respect to the amount of input cDNA. PCR for G3PDH was performed in parallel to assure good quality of RNA and cDNA preparations. Each cycle consisted of 60 s at 92° C. for denaturation, 120 s at 53° C. for annealing, and 180 s at 72° C. for extension (60 s at 98° C., 90 s at 55° C., and 150 s at 72° C. for G3PDH respectively). 10 μl of the amplified products (368 bp for TH and 983 bp for G3PDH) were separated on a 2% agarose gel and visualized by ethidium bromide staining.

[6] = tested on: Primary cortical neurospheres; assay: Migration of neural cells from primary cortical neurospheres; type: cell-based, mouse; settings: 10^-7 M, within 24-48 hrs of culture, EGF/bFGF dependent (FIG. 7)
Experimental: Primary cortical neurospheres (21d) generated from wild type mice were cultured attached on PLL and laminin-coated coverslips in serum-free media in the presence or absence of EGF and bFGF (20 ng/ml final concentration each). For the screen, the media was supplemented with ethanol, retinoic acid (at-RA), DHEA, or the synthetic spiro neurosteroid BNN-93, at a final concentration of 10^−7M.

progenitor neural cells = assay: Neurogenesis of progenitor neural cells isolated from mouse fetal brain; type: cell-based; settings: 100 nM, 24 hours (FIG. 8)
Experimental: This effect appeared to be EGF/bFGF dependent. […] The extent of migration of the first days in culture was mostly normalised as in most conditions cells had migrated out of the sphere to the periphery. The photographs shown (FIG. 7) were obtained on the 6th day of culture where migration effects are not so dramatic but still evident. Additionally, progenitor neural cells, isolated from mouse fetal brain, were exposed for 24 hours to 100 nM of BNN-93 or to the vehicle (control).

TrkA NGF receptors = target: T1, TrkA NGF receptors (Homo sapiens, UniProt P04629); assay: [3H]DHEA competition binding on membranes from HEK293 TrkA cells; settings: membranes from HEK293 TrkA cells (FIG. 9)
T1 construct: expressed in transfected cells; host or cells: HEK293
Experimental: (§1) HEK293 cells were transfected with the cDNAs of TrkA and p75NTR, the high and low affinity receptors for nerve growth factor (NGF) (Ann Rev Biochem 72:604, 2003). Transfectants expressing the two NGF receptor subtypes were cultured in flasks and, after washing twice with PBS, they were detached from the flasks. After a centrifugation at 1500 g, they were homogenized by sonication, in a 50 mM Tris-HCl buffer pH 7.4 at 4° C., containing freshly added protease inhibitors (1 mM PMSF and 1 μg/ml aprotinin). Unbroken cells were removed by centrifugation at 1500 g (10 min at 4° C.), and membranes were collected by centrifuging at 102,000 g for 1 hr at 4° C. Membranes were washed once with Tris-HCl, briefly acidified at 4° C. (for 3 min) with 50 mM glycine (pH 5.0), and re-suspended in the same buffer. Protein content was assayed by the method of Bradford, using reagents from Bio-Rad (Hercules, Calif.). Membranes (at a final concentration of 2 mg/ml) were incubated with 5 nM [^3H]DHEA, in the absence (to determine the total binding) or presence of unlabelled BNN-124 at concentrations varying from 10^−12 to 10^−6 M and at a final volume of 100 μl, in Tris-HCl buffer (50 mM, pH 7.4). […] The filters were washed three times with ice-cold Tris-HCl, dried and counted in a β-scintillation counter (Perkin Elmer, Foster City, Calif.) with 60% efficiency for tritium.

p75NTR NGF receptors = target: T2, p75NTR NGF receptors (Homo sapiens, UniProt P08138); assay: [3H]DHEA competition binding on membranes from HEK293 p75NTR cells; settings: membranes from HEK293 p75NTR cells (FIG. 9)
T2 construct: expressed in transfected cells; host or cells: HEK293
T2 sequence (P08138 29-427): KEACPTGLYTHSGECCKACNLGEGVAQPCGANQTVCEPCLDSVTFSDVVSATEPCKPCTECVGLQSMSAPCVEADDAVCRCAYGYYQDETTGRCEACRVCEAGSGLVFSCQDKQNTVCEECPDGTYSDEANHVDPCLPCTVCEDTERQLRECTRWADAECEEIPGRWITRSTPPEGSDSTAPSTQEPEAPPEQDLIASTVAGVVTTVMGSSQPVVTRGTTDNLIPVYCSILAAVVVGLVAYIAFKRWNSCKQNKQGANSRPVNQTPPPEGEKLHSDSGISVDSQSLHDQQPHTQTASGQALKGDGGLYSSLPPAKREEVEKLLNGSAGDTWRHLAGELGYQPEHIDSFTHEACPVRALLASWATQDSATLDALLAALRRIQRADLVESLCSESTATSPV
Experimental: as §1

[7] = tested on: Bcl-2 protein and ERK1/2 kinase; assay: Western blot of Bcl-2 and phosphorylated ERK1/2 in serum deprived PC12 cells; type: cell-based, rat; settings: 8 hours, 10 nM BNN-124 or 20 ng/ml NGF (FIG. 9)
Experimental: Neural-crest derived PC12 cells were cultured for 8 hours in the absence of serum, but supplemented with 10 nM of synthetic neurosteroids of 20 ng/ml of NGF. At the end of incubation cell lysates were subjected to electrophoresis through a 12% SDS-polyacrylamide gel. Then proteins were transferred to nitrocellulose membranes, which were processed according to standard Western blotting procedures. To detect protein levels, membranes were incubated with the appropriate antibodies: Bcl-2 (Santa Cruz Biotechnology Inc., Santa Cruz, Calif., dilution 1:100), phosphorylated ERK1/2 (Cell Signalling Technology Inc., Beverly, Mass., dilution 1:100). To normalize for protein content, the blots were stripped and stained with anti-actin or anti-total ERK1/2 antibodies (Chemicon, Temecula, Calif., dilution 1:400).

T1 sequence (P04629 33-796): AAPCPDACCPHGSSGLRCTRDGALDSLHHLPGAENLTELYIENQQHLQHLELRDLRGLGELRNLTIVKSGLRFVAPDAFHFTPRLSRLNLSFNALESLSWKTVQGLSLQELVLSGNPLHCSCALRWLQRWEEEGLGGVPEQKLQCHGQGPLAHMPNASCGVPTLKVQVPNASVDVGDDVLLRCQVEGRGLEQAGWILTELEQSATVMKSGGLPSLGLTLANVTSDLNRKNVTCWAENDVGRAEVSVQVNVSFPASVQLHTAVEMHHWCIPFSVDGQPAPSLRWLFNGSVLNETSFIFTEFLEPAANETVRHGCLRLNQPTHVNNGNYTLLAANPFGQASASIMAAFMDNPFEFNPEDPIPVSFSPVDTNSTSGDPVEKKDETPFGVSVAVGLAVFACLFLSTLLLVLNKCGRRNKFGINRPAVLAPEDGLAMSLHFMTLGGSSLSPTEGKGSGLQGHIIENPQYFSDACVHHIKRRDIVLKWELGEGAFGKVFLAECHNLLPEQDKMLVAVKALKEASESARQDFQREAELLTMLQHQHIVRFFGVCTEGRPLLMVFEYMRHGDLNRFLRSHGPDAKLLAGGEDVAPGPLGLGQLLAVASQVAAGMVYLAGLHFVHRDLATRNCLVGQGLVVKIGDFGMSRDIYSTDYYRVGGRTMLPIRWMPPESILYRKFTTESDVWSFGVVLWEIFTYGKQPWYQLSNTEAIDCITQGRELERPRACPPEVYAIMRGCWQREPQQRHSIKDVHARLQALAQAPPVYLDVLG

Compound: C[C@]12CC[C@H](O)CC1=CCC1C2CC[C@@]2(C)C1CC[C@@]21OC1CO (stereo partly drawn) [BNN-93, 3β,21-dihydroxy-17α,20-epoxy-5-pregnene]
- IC50 [1]: 4.16 nM
- levels of anti-apoptotic Bcl-2 and Bcl-xL proteins [2]: preventing this effect
- displacement of specific [3H]DHEA binding ([3]; at 1 μM, PC12 cell membranes): approximately 60%
- Kd [3]: 11.2 nM
- dopamine levels in culture media, long-term [4]: increase of dopamine levels peaking at 24 h
- stimulation of dopamine secretion, short-term [4]: doubling their levels
- induction of tyrosine hydroxylase mRNA [5]: strong induction
- migration of neural cells to the periphery of the neurospheres [6]: extensive migration
- neurogenesis and differentiation of progenitors to neural cells (progenitor neural cells): stimulated neurogenesis and differentiation

Compound: C[C@]12CC[C@H](O)CC1=CCC1C2CC[C@@]2(C)C1CC[C@]21O[C@H]1CO (stereo partly drawn) [BNN-124, (20S)-3β,21-dihydroxy-17β,20-epoxy-5-pregnene]
- IC50 [1]: 68.4 nM
- levels of anti-apoptotic Bcl-2 and Bcl-xL proteins [2]: preventing this effect
- displacement of specific [3H]DHEA binding ([3]; at 1 μM, PC12 cell membranes): approximately 60%
- Kd [3]: 0.33 nM
- Kd (TrkA NGF receptors): 0.29 nM
- Kd (p75NTR NGF receptors): 1 nM
- induction of anti-apoptotic Bcl-2 protein and phosphorylation of ERK1/2 kinase [7]: same effect

Compound: C[C@]12CC[C@H](O)CC1=CC[C@@H]1[C@@H]2CC[C@]2(C)C(=O)CC[C@@H]12 [DHEA, dehydroepiandrosterone, reference compound]
- IC50 [1]: 0.15 nM
- reversal of serum deprivation-induced apoptosis ([1]; absence of serum 12 hours, steroids at 10 nM (FIG. 1)): ~50%
- levels of anti-apoptotic Bcl-2 and Bcl-xL proteins [2]: preventing this effect
- competition for [3H]DHEA binding ([3]; at 1 μM, PC12 cell membranes): Almost complete competition
- Kd [3]: 1.1 nM
- stimulation of dopamine secretion, short-term [4]: doubling their levels
- migration of neural cells to the periphery of the neurospheres [6]: extensive migration

Compound: C[C@]12CC[C@H](OS(=O)(=O)O)CC1=CC[C@@H]1[C@@H]2CC[C@]2(C)C(=O)CC[C@@H]12 [DHEAS, reference compound]
- dopamine levels in culture media, long-term [4]: increase of dopamine levels peaking at 24 h
- induction of tyrosine hydroxylase mRNA [5]: strong induction

Compound: NGF: nerve growth factor
- induction of anti-apoptotic Bcl-2 protein and phosphorylation of ERK1/2 kinase [7]: inducing
